Patent publication US20060293378A1, “Method of lowering intraocular pressure” (priority 2005, published 2006)

Tested on: intraocular pressure
Experiment: Intraocular pressure in rabbits after injection of an aqueous suspension into the right eye, compared with untreated left eyes
Format: in vivo
Settings: suspension of 2 mg/mL compound with 7.5 mg/mL sodium carboxymethylcellulose injected into right eyes, dosages 60 μg, 100 μg and 140 μg, versus untreated left eyes, maintained over the 14 days of the test, FIGS. 1 to 3
Method: An aqueous suspension was produced containing 2 mg/mL of compound 21 illustrated above together with 7.5 mg/mL of sodium carboxymethylcellulose.

CC(C)OCc1ccc2c(c1)c1c3c(c4c(c1n2CCCOC(=O)CN(C)C)Cc1ccccc1-4)C(=O)NC3 [Compound 21]
effect on intraocular pressure over time: significantly increased lowering of intraocular pressure
